Measured values reported in patent US20080249156A1, “Combinations of statins and anti-obesity agent and glitazones” (priority 2007, published 2008).
Read-outs that look alike come from different tables or passages of the source.

Experiments:
[1] = not given; remark: listed apart in the source
[2] = Example 1, patient on rosiglitazone 4 mg once a day
[3] = Example 2, patient on rosiglitazone 4 mg twice a day and metformin 500 mg twice daily
[4] = Example 3, patient on rosiglitazone 8 mg once daily and metformin 500 mg once daily

total cholesterol since beginning the rosiglitazone therapy [2]: increase
total cholesterol since beginning the rosiglitazone therapy [3]: increase
total cholesterol since beginning the rosiglitazone therapy [4]: increase
SMILES: CN(CCOc1ccc(CC2SC(=O)NC2=O)cc1)c1ccccn1 (stereo not drawn) [rosiglitazone]
body weight since beginning the rosiglitazone therapy [1, 2]: increase
body weight since beginning the rosiglitazone therapy [1, 3]: increase
body weight since beginning the rosiglitazone therapy [1, 4]: increase
